Reference: ChEMBL document CHEMBL4819030, “Microbial Transformation of Broussochalcones A and B by Aspergillus niger” (J Nat Prod, 2021)
The source made the active and inactive calls. The rule behind the calls is not given here.

Assays:
Assay type in all cases: functional, cell-based
HT-29 = test: Cytotoxicity against human HT29 cells incubated for 24 hrs by MTT assay
A375P = test: (§1) Cytotoxicity against human A375P cells incubated for 24 hrs by MTT assay
MCF7 = test: Cytotoxicity against human MCF7 cells incubated for 24 hrs by MTT assay
HepG2 = test: Cytotoxicity against human HepG2 cells incubated for 48 hrs by MTT assay
A549 = test: Cytotoxicity against human A549 cells incubated for 48 hrs by MTT assay
[1] = as §1

SMILES | Activity (HT-29) | Activity (A375P) | Activity (MCF7) | Activity (HepG2) | Activity (A549) | IC50 (HT-29; HT-29, 24 h) [µM] | IC50 [1] [µM] | IC50 (MCF7; MCF7, 24 h) [µM] | IC50 (A549; A549, 48 h) [µM]
CC1(C)O[C@@H]1Cc1cc(C(=O)CCc2ccc(O)cc2)c(O)cc1O | inactive | inactive | inactive | inactive | inactive |  |  |  | 
CC(C)=CCc1cc(C(=O)CCc2ccc(O)c(O)c2)c(O)cc1O |  |  |  | inactive |  | 3.8 | 3.8 | 3.8 | 3.8
CC1(C)O[C@@H]1Cc1cc(C(=O)CCc2ccc(O)c(O)c2)c(O)cc1O | inactive | inactive | inactive | inactive | inactive |  |  |  | 
CC1(C)O[C@H]1Cc1cc(C(=O)/C=C/c2ccc(O)cc2)c(O)cc1O | inactive | inactive | inactive | inactive | inactive |  |  |  | 
CC(C)(O)[C@@H](O)Cc1cc(C(=O)CCc2ccc(O)c(O)c2)c(O)cc1O | inactive | inactive | inactive | inactive | inactive |  |  |  | 
CC(C)(O)[C@H](O)Cc1cc(C(=O)/C=C/c2ccc(O)c(O)c2)c(O)cc1O | inactive | inactive | inactive | inactive | inactive |  |  |  | 
CC1(C)O[C@H]1Cc1cc(C(=O)/C=C/c2ccc(O)c(O)c2)c(O)cc1O | inactive | inactive | inactive | inactive | inactive |  |  |  | 
CC(C)(O)[C@H]1Cc2cc(C(=O)CCc3ccc(O)cc3)c(O)cc2O1 | inactive | inactive | inactive | inactive | inactive |  |  |  | 
CC(C)(O)[C@H](O)Cc1cc(C(=O)/C=C/c2ccc(O)cc2)c(O)cc1O | inactive | inactive | inactive | inactive | inactive |  |  |  | 
CC(C)(O)[C@@H](O)Cc1cc(C(=O)CCc2ccc(O)cc2)c(O)cc1O | inactive | inactive | inactive | inactive | inactive |  |  |  | 
